Assay results: ChEMBL document CHEMBL1909562, “Carbazole-containing arylcarboxamides as BACE1 inhibitors” (Bioorg Med Chem Lett, 2011)

Molecular target: Beta-secretase 1 (Homo sapiens, UniProt P56817)
Test: Inhibition of BACE1 by fluorescence-based assay

Chain of Beta-secretase 1 (P56817 whole entry): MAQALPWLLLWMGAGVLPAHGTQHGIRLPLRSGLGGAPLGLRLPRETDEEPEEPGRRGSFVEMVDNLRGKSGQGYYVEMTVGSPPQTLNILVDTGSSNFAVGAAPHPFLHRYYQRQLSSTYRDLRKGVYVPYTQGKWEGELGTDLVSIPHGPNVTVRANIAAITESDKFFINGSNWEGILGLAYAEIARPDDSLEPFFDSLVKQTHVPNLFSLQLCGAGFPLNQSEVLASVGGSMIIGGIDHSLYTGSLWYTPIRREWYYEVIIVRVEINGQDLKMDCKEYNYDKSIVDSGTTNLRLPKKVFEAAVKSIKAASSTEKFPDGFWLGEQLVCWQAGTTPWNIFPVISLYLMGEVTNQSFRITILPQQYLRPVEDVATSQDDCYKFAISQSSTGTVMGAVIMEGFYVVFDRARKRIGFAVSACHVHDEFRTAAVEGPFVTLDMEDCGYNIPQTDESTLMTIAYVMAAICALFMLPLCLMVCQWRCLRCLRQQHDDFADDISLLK

| Compound | IC50 [µM] |
| --- | --- |
| O=C(c1ccc(Cl)c(Cl)c1)N(Cc1ccccc1)CC(O)Cn1c2ccccc2c2ccccc21 (centres undefined) | > 10 |
| O=C(c1ccccc1)N(CC(O)Cn1c2ccccc2c2ccccc21)c1ccc([N+](=O)[O-])cc1 (centres undefined) | > 10 |
| O=C(c1ccccc1)N(CC(O)Cn1c2ccccc2c2ccccc21)c1ccccc1 (centres undefined) | > 10 |
| O=C(c1ccc(Cl)c(Cl)c1)N(CC(O)Cn1c2ccccc2c2ccccc21)c1ccccc1 (centres undefined) | 2.5 |
| O=C(c1ccccc1)N(CCc1ccccc1)CC(O)Cn1c2ccccc2c2ccccc21 (centres undefined) | 4.8 |
| O=C(c1ccccc1)N(CC(O)Cn1c2ccccc2c2ccccc21)c1ccc(C(F)(F)F)cc1 (centres undefined) | > 10 |
| O=C(c1ccccc1)N(CC(O)Cn1c2ccccc2c2ccccc21)C1CCCCC1 (centres undefined) | > 10 |
| O=C(c1ccccc1)N(Cc1ccccc1)CC(O)Cn1c2ccccc2c2ccccc21 (centres undefined) | > 10 |

Other lines, results leading:

| IC50 [µM] | Compound |
| --- | --- |
| > 10 | O=C(c1ccccc1)N(CC(O)Cn1c2ccccc2c2ccccc21)c1ccc(F)cc1 (centres undefined) |
| > 10 | O=C(c1ccccc1)N(CC(O)Cn1c2ccccc2c2ccccc21)c1ccc(Cl)cc1 (centres undefined) |
| > 10 | O=C(c1ccccc1)N(Cc1ccc(Cl)cc1)CC(O)Cn1c2ccccc2c2ccccc21 (centres undefined) |
| 4.7 | O=C(c1ccc(Cl)cc1)N(CC(O)Cn1c2ccccc2c2ccccc21)c1ccccc1 (centres undefined) |
| > 10 | COc1ccc(C(=O)N(Cc2ccccc2)CC(O)Cn2c3ccccc3c3ccccc32)cc1 (centres undefined) |
| 2.99 | OC(CNc1cccc2ccccc12)Cn1c2ccccc2c2ccccc21 (centres undefined) |
| > 10 | Cc1ccc(N(CC(O)Cn2c3ccccc3c3ccccc32)C(=O)c2ccccc2)cc1 (centres undefined) |
| > 10 | Cc1ccc(CN(CC(O)Cn2c3ccccc3c3ccccc32)C(=O)c2ccccc2)cc1 (centres undefined) |
| > 10 | O=C(c1ccc(Cl)cc1)N(Cc1ccccc1)CC(O)Cn1c2ccccc2c2ccccc21 (centres undefined) |
| 3.8 | COc1ccc(C(=O)N(CC(O)Cn2c3ccccc3c3ccccc32)c2ccccc2)cc1 (centres undefined) |
| > 10 | COc1ccc(CN(CC(O)Cn2c3ccccc3c3ccccc32)C(=O)c2ccccc2)cc1 (centres undefined) |
